Measured values: US20040106545A1, “Compounds and methods for modulating cell adhesion” (priority 1996, published 2004)

Legend:
OVCAR-3 = assay: Disruption of OVCAR-3 ovarian cancer cell adhesion; assay type: cell-based, human; details: 1, 0.1, or 0.01 mg/ml, up to 48 hours
Experimental: The human ovarian cancer cell line OVCAR-3, which expresses E-cadherin, was used in these experiments. Cells were cultured in RPMI supplemented with insulin and containing 20% FCS. Cells were grown in T-250 culture flasks and maintained by periodic subculturing. Cells were harvested from flasks and seeded in individual wells of 96-well culture dishes (surface area of each well was 0.32 cm^2) at a density of 50,000 cells per well in 0.1 ml media containing the cyclic peptides (at concentrations of 1, 0.1, or 0.01 mg/ml). Media control wells were also established. Cultures were evaluated periodically by microscopic examination under both bright field and phase contrast conditions, and were maintained for 48 hours.

SKOV3 tumors = assay: Human ovarian (SKOV3) tumors grown in nude mice: tumor volume and histology; assay type: in vivo, mouse
Experimental: SKOV3 cells (ATCC) were grown to 70% confluence in Minimum Essential Medium (Life Technologies, Grand Island, N.Y.) supplemented with 10% Fetal Bovine Serum (Wisent, St. Bruno, Quebec) in a humidified atmosphere containing 5% CO2. Cells were then dissociated with 0.02% PBS/EDTA. Total cell count and viable cell number was determined by trypan blue stain and a hemacytometer.
Approximately 1×10^7 cells were resuspended in 400 μl saline and injected in 6-week-old CD-1 nude mice (female, Charles River) subcutaneously. After 20 days of continuous tumor growth, tumor size was about 100 mm^3. The tumor-bearing animals were then injected intraperitoneally every day for 4 consecutive days with 20 mg/kg of the representative peptide modulating agent N—Ac-CHAVC-NH2 (SEQ ID NO:10) and saline, for experimental and control respectively. Mice were sacrificed by cervical dislocation 4 days after final injection.
Tumor tissue was dissected and fixed in PBS with 4% paraformaldehyde for 48 hours. Specimens were then dehydrated in a series of alcohol incubations, and embedded in paraffin wax. Tissues were sectioned, rehydrated and stained with hematoxylin/eosin for morphological purposes. Representative sections obtained from treated and untreated mice are shown in FIGS. 28B and 28A, respectively.
Within similar experiments, tumor-bearing nude mice as described above were injected intraperitoneally with 2 mg/kg of the representative peptide modulating agent N—Ac-CHAVC-NH2 (SEQ ID NO:10) and saline, for experimental and control respectively. Injections were performed every day for 4 days. Mice were sacrificed 24 hours after the last injection. Tumor tissue was fixed, sectioned and stained as described above. Representative sections obtained from treated and untreated mice are shown in FIGS. 30A and 30B, respectively.
In a similar study, the effect of N—Ac-CHAVC-NH2 (SEQ ID NO:10) on ovarian tumor growth was evaluated at 2 mg/kg and 0.2 mg/kg. Mice were treated as described above with saline alone, 2 mg/kg peptide or 0.2 mg/kg peptide once per day for 5 days. The percent change in tumor volume (relative to the tumor size at day 1) was determined.

[1] = tested on: Human saphenous vein vascular smooth muscle cells; assay: Vascular smooth muscle cell apoptosis at migrating wound edge, in situ end labeling; assay type: cell-based; details: 1 mg/mL, 24 hours after wounding, n=4, p<0.05
Experimental: Human saphenous vein vascular smooth muscle cells were explanted from surplus segments of vein from patients undergoing coronary artery bypass surgery. Cells were maintained in Dulbecco's modified essential medium supplemented with […], 2 mmol/L L-glutamine and 10% fetal calf serum and were grown to confluence on glass coverslips. The cell layer was then subjected to scrape-wounding by drawing a fine cell scraper across the coverslip. Proliferation of the vascular smooth muscle cells was inhibited by addition of 2 mM hydroxyurea to the culture media. Vascular smooth muscle cells that are treated in this manner respond to the wounding of the confluent monolayer by migrating into the wound (Hammerle et al (1991) Vasa 20, 207-215). The percentage of apoptotic cells in the migrating edge (outermost 100 μm from the wound) was assessed by in situ end labeling at 24 hours after wounding (as in George et al (2001) Gene Therapy 8 668-676).

[2] = tested on: Human saphenous vein vascular smooth muscle cells; assay: Vascular smooth muscle cell apoptosis and death in aggregates (agarose-coated wells); assay type: cell-based; details: 0.5 mg/mL
Experimental: Human saphenous vein vascular smooth muscle cells were explanted from surplus segments of vein from patients undergoing coronary artery bypass surgery. Cells were maintained in Dulbecco's modified essential medium supplemented with […], 2 mmol/L L-glutamine and 10% fetal calf serum and were grown in agarose-coated wells. Under these conditions the cells are unable to attach to the underlying substratum and adhere to one another by cell-cell contacts only, forming aggregates. The percentage of dead cells was assessed by staining with Trypan blue or by fixing the cells and staining with Hoescht (H-33342). Trypan blue stain is absorbed only by non-viable cells when the integrity of the cell membrane is breached (Freshney, R. (1987) Culture of Animal Cells: A Manual of Basic Technique, p. 117, Alan R. Liss, Inc., New York) whereas Hoescht stain enters living cells (Shapiro (1981) Cytometry 2, 143-150).

[3] = tested on: Madin Darby canine kidney (MDCK) cells; assay type: cell-based; details: 18 h
L1 = L1 (Homo sapiens, UniProt P32004); assay: Neurite outgrowth of rat cerebellar neurons on L1 expressing 3T3 monolayers (Example 15); assay type: cell-based; design: expressed in transfected cells; rat cerebellar neurons on top; details: 125 μg/ml; read-out: % Inhibition of L1 Response
Experimental: Cell culture and neurite outgrowth assays. Co-cultures of cerebellar neurons on monolayers of control 3T3 cells and monolayers of transfected 3T3 cells that express physiological levels of chick N-cadherin or human L1 were established as previously described (Williams et al., Neuron 13:583-594, 1994). In brief, 80,000 3T3 cells (control and transfected) were plated into individual chambers of an eight-chamber tissue culture slide coated with polylysine and fibronectin and cultured in DMEM/10% FCS. After 24 hours, when confluent monolayers had formed, the medium was removed and 3000 cerebellar neurons isolated from post-natal day 2-3 rats were plated into each well in SATO media (Doherty et al., Nature 343:464-466, 1990) supplemented with 2% FCS. All of the test peptides were added immediately before the neurons as a 2× stock prepared in SATO/2% FCS. The co-cultures were maintained for 16-18 hours, at which time they were fixed and immunostained for GAP-43 which is present only in the neurons and delineates the neuritic processes. The mean length of the longest neurite per cell was measured for 150-200 neurons sampled in replicate cultures as previously described (Williams et al., Neuron 13:583-594, 1994). […] Dose-response curves were evaluated and the EC50 values determined.
Other cell adhesion molecules, such as L1, can stimulate neurite outgrowth, and this response shares the same downstream signaling steps as the N-cadherin response. […] As previously reported, L1 stimulated neurite outgrowth from cerebellar neurons.

Sequence of L1 (P32004 20-1257): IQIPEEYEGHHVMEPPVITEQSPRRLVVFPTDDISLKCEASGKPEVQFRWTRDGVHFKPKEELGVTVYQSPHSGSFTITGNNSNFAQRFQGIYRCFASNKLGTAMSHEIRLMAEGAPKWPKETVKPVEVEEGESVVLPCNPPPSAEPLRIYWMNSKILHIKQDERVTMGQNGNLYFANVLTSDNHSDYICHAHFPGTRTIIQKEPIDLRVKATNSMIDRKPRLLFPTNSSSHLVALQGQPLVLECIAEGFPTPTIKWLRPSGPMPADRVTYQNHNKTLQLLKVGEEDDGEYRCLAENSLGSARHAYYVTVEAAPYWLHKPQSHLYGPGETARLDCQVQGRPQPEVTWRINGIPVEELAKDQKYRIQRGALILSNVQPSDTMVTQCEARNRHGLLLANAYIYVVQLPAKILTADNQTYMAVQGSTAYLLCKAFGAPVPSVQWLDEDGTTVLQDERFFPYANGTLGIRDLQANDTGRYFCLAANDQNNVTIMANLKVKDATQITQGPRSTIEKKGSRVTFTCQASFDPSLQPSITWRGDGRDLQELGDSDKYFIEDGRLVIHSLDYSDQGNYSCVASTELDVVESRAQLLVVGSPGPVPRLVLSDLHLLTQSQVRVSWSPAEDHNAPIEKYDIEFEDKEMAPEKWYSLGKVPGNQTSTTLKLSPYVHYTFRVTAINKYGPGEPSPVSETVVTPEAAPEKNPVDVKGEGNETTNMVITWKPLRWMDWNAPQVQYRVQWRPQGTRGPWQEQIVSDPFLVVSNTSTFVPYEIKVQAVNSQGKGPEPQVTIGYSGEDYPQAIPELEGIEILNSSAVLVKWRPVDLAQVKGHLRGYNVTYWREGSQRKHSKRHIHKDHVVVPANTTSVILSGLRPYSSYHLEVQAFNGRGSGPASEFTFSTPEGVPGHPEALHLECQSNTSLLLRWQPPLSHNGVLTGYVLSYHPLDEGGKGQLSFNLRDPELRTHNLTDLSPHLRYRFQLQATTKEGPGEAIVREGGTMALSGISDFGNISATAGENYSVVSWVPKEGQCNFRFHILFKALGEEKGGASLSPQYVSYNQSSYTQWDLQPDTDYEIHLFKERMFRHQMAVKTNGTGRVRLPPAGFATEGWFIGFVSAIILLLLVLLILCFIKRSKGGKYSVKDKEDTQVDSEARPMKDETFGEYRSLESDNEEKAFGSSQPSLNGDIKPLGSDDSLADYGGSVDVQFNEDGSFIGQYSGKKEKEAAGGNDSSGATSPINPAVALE

With `CC(=O)N[C@H]1CSSC[C@@H](C(N)=O)NC(=O)[C@H](C(C)C)NC(=O)[C@H](C)NC(=O)[C@H](Cc2c[nH]cn2)NC1=O` [N—Ac—CHAVC—NH2, N-Ac-Cys-His-Ala-Val-Cys-NH2] the “disruption of OVCAR-3 adhesion” value (OVCAR-3) was “inactive”, the “change in tumor volume” value (SKOV3 tumors; 0.2 mg/kg once per day for 5 days) was “grew at a slower rate than tumors treated with saline” and the “effect on tumor blood vessels and tumor growth” value (SKOV3 tumors; 2 mg/kg intraperitoneally every day for 4 days, Von Willebrand Factor VIII stain) was “capable of damaging tumor blood vessels and stopping tumor growth in vivo”. The “change in tumor volume” value (SKOV3 tumors; 2 mg/kg once per day for 5 days) was “slight reduction in volume over the five day study”, the “tumor growth / tumor size” value (SKOV3 tumors; 20 mg/kg intraperitoneally every day for 4 consecutive days) was “prevents detectable tumor growth and results in a substantial decrease in tumor size” and the “increase in apoptosis at wound edge” value [1] was 3±1 fold. The “aggregation of vascular smooth muscle cells” value [2] was “inhibits aggregation”, the “increase in apoptosis and cell death in aggregates” value ([2]; 24 hr, n=4, p<0.05) was 2 fold and the EC50 [3] was 270 µM. It also gave an inhibition at 125 µg/mL (L1) of 41.6 ± 8.6%.
